Legend:
EGFR L858R/T790M = EGFR L858R/T790M (Homo sapiens (Human), UniProt P00533, L858R/T790M); assay: TR-FRET assay for ERBB kinases; format: biochemical; conditions: geometric mean if measured more than once
Experimental: (§1) TR-FRET Assay for ERBB Kinases
(§2) All compounds and PROTACs were serially diluted in three-fold increments using 100% DMSO, followed by an intermediate 10-fold dilution using Buffer A (50 mM HEPES, pH 7.5, 50 mM NaCl, 10 mM MgCl2, 1 mM DTT, and 0.1% Pluronic F-68). […] Next, 10 uL of protein kinase in Buffer A was added to each well of the assay plate and pre-incubated with compound for 10 minutes. Kinase reactions were then initiated by addition of 5 uL substrate mix containing 3 mM ATP and 30 uM fluorescein-labeled Poly-GluTyr (Thermo Fisher, #PV3610) in Buffer A and allowed to proceed for 10 minutes at room temperature. Reactions were quenched by addition of a 5 uL mixture containing 5 nM LanthaScreen® Tb-pY20 Antibody (Thermo Fisher, #PV3552) and 40 mM EDTA in Buffer A. Assay plates were then read using a Synergy2 (Biotek Instruments, Winooski, Vt.) via excitation thru a 340/20 nm bandpass filter and emission collected thru 490/10 nm (donor) and 520/25 nm (acceptor) bandpass filters.

EGFR WT = EGFR WT (Homo sapiens (Human), UniProt P00533); assay: TR-FRET assay for ERBB kinases; format: biochemical; conditions: geometric mean if measured more than once
Experimental: as §1, §2

EGFR L858R/T790M/C797S = EGFR L858R/T790M/C797S (Homo sapiens (Human), UniProt P00533, C797S/L858R/T790M); assay: TR-FRET assay for ERBB kinases; format: biochemical; conditions: geometric mean if measured more than once
Experimental: as §1, §2

EGFR Exon20NPG = EGFR Exon20NPG (Homo sapiens (Human), UniProt P00533, INS770NPG); assay: TR-FRET assay for ERBB kinases; format: biochemical; conditions: geometric mean if measured more than once
Experimental: as §1
All compounds and PROTACs were serially diluted in three-fold increments using 100% DMSO, followed by an intermediate 10-fold dilution using Buffer A (50 mM HEPES, pH 7.5, 50 mM NaCl, 10 mM MgCl2, 1 mM DTT, and 0.1% Pluronic F-68). Two microliters of serially diluted compound or PROTAC were then transferred to black 384-well Proxiplates (PerkinElmer, #6008260) using an Integra Viaflo96. Next, 10 uL of protein kinase in Buffer A was added to each well of the assay plate and pre-incubated with compound for 10 minutes. Kinase reactions were then initiated by addition of 5 uL substrate mix containing 3 mM ATP and 30 uM fluorescein-labeled Poly-GluTyr (Thermo Fisher, #PV3610) in Buffer A and allowed to proceed for 10 minutes at room temperature. Reactions were quenched by addition of a 5 uL mixture containing 5 nM LanthaScreen® Tb-pY20 Antibody (Thermo Fisher, #PV3552) and 40 mM EDTA in Buffer A. Assay plates were then read using a Synergy2 (Biotek Instruments, Winooski, Vt.) via excitation thru a 340/20 nm bandpass filter and emission collected thru 490/10 nm (donor) and 520/25 nm (acceptor) bandpass filters.

[1] = molecular target: EGFR L858R/T790M double mutant (H1975) (Homo sapiens (Human), UniProt P00533, L858R/T790M); assay: EGFR protein degradation assay (Western blot); format: cell-based; conditions: 72 hours, 300 nM to 10 nM
Experimental: EGFR Protein Degradation assay
Cells expressing the appropriate form of EGFR were seeded in 6-well plates (300,000 cells per well) and allowed to adhere to the plate overnight. […] To harvest cells, media was removed and cells were washed once with ice-cold phosphate-buffered saline (PBS) prior to the addition of 400 μl lysis buffer (Cell Signaling Technology) supplemented with a protease inhibitor cocktail (Thermo Scientific). Cells were scraped from the plate and the cell lysate transferred to an Eppendorf tube and then clarified by a single spin at 10 000 rpm for 10 minutes. The protein concentration of each lysate was determined (BCA kit, Thermo Scientific) prior to the addition of loading buffer (Invitrogen) and reducing agent (Invitrogen). 10 μg protein of each lysate was loaded on an SDS/PAGE gel and run at 165V for 2 hours. Following transfer to a PVDF membrane (iBlot2, Thermo Fisher Scientific), the membrane was blocked in Tris-buffered saline containing 0.1% Tween-20 (TBS-T) and supplemented with 5% powdered milk for 1 hour. Membranes were then probed with EGFR and tubulin (loaded control) primary antibodies in TBS-T containing 3% bovine serum albumin (BSA) overnight at 4° C. Membranes were washed thrice with TBS-T before incubation with secondary antibody in TBS-T containing 3% bovine serum albumin (BSA) and incubated for 1 hour at room temperature. Following 3 further washes with TBS, membrane proteins of interest were detected by enzyme-linked chemiluminescence (ECL) using a Chemidoc (Bio-Rad).

Chain of EGFR L858R/T790M (P00533 25-1210 T790M/L858R): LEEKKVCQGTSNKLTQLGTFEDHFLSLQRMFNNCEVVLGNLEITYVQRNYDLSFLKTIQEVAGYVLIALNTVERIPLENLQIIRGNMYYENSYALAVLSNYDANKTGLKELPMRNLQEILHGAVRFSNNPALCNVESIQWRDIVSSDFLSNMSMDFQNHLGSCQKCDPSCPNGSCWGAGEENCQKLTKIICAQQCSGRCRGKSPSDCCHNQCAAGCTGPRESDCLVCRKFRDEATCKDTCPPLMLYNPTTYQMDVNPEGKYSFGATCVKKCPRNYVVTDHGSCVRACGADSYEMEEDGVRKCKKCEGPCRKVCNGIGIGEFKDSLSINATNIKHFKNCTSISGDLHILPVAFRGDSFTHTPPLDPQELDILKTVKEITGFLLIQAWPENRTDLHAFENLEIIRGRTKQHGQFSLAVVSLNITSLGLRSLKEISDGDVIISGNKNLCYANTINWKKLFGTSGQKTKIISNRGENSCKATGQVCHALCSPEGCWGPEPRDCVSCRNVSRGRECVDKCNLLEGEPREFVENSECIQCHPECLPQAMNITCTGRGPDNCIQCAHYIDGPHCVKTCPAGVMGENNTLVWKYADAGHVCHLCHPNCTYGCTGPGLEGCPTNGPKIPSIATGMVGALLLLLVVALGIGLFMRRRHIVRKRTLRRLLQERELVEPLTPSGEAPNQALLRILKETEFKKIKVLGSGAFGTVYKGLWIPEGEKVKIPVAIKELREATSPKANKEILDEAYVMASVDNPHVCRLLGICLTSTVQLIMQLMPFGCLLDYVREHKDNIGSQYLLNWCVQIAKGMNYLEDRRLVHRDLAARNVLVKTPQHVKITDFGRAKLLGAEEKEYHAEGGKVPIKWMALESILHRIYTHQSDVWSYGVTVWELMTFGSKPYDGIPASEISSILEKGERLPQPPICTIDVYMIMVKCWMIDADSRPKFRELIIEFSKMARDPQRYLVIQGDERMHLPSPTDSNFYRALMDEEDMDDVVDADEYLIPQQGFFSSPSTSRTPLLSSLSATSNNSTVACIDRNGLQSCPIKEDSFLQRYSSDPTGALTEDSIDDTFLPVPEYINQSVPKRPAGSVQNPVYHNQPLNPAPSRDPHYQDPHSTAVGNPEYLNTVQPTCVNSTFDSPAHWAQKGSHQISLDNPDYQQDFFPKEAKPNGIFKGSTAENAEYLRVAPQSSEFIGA
Chain of EGFR L858R/T790M double mutant (H1975) (P00533 25-1210 T790M/L858R): as above
Chain of EGFR WT (P00533 25-1210): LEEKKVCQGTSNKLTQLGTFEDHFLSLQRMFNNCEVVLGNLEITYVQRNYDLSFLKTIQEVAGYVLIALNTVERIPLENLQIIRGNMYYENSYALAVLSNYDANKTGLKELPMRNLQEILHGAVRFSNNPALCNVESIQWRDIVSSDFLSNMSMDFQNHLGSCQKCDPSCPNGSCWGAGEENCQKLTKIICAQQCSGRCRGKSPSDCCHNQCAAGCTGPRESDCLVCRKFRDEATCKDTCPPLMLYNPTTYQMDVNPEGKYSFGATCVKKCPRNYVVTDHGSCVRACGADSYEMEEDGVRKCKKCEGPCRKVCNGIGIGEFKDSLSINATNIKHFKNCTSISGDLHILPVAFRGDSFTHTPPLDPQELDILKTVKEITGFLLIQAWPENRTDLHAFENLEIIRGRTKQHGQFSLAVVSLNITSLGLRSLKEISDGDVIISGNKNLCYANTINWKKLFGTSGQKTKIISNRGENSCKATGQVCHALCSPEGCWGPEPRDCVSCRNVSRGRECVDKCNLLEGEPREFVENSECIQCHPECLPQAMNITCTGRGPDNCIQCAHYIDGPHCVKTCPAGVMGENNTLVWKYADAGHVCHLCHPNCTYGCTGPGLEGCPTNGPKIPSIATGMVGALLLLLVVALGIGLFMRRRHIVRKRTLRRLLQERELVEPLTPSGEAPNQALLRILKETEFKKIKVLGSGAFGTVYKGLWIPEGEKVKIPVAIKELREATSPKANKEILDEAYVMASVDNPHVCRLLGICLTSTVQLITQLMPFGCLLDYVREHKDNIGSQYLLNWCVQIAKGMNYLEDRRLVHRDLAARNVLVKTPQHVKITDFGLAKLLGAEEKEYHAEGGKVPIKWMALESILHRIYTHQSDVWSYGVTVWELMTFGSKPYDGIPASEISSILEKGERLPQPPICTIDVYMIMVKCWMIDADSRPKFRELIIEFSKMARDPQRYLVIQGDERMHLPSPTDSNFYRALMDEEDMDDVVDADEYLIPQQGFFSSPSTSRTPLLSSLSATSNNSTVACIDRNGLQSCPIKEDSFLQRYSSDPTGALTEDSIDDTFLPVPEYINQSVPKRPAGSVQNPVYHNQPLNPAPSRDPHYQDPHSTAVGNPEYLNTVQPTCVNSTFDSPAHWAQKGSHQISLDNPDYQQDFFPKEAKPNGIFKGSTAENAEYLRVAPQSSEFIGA
Chain of EGFR Exon20NPG (P00533 other isoform, or with tags, fused parts or gaps del 1-694/ins NPG behind 770 limits assumed): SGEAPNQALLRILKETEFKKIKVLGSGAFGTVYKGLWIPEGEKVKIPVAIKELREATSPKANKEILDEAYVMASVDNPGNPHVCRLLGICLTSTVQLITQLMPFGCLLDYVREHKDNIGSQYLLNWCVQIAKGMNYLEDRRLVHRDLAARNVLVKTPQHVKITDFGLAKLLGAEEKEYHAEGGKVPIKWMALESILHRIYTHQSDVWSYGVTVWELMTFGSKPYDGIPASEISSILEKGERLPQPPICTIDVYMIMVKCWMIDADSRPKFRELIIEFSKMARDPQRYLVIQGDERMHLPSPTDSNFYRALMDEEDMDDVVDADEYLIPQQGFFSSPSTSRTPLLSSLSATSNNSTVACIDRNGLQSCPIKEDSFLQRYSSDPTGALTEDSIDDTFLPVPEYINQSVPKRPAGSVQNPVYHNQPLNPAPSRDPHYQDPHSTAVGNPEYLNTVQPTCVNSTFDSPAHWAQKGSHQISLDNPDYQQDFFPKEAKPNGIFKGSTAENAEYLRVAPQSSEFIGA

Compound	IC50 (EGFR L858R/T790M) [µM]	IC50 (EGFR WT) [µM]	IC50 (EGFR L858R/T790M/C797S) [µM]	IC50 (EGFR Exon20NPG) [µM]	EGFR protein remaining, EGFR L858R/T790M double mutant [1]
COC1CCN(c2nccc(Nc3cc4c(cn3)nc(COCCCN3CCN(CCCOCC(=O)N[C@H](C(=O)N5C[C@H](O)C[C@H]5C(=O)N[C@@H](C)c5ccc(-c6scnc6C)cc5)C(C)(C)C)CC3)n4C(C)C)n2)CC1 [Example 85, (2S,4R)-4-hydroxy-1-((S)-2-(2-(3-(4-(3-((1-isopropyl-6-((2-(4-methoxypiperidin-1-yl)pyrimidin-4-yl)amino)-1H-imidazo[4,5-c]pyridin-2-yl)methoxy)propyl)piperazin-1-yl)propoxy)acetamido)-3,3-dimethylbutanoyl)-N—((S)-1-(4-(4-methylthiazol-5-yl)phenyl)ethyl)pyrrolidine-2-carboxamide]	16	> 30	3.9	> 30	C (>80% EGFR protein remaining after 72 hours of incubation with the test compound at a concentration of 300 nM)
Cc1ncsc1-c1ccc([C@H](C)NC(=O)[C@H]2C[C@H](O)CN2C(=O)[C@@H](NC(=O)COCCOCCOc2ccc(-c3nccc(Nc4cc5c(cn4)nc(C)n5C(C)C)n3)cc2)C(C)(C)C)cc1 [Example 276, (2R,4S)-4-hydroxy-1-((S)-2-(2-(2-(2-(4-(4-((1-isopropyl-2-methyl-1H-imidazo[4,5-c]pyridin-6-yl)amino)pyrimidin-2-yl)phenoxy)ethoxy)ethoxy)acetamido)-3,3-dimethylbutanoyl)-N—((S)-1-(4-(4-methylthiazol-5-yl)phenyl)ethyl)pyrrolidine-2-carboxamide]	23	20	29	> 30	C (>80% EGFR protein remaining after 72 hours of incubation with the test compound at a concentration of 300 nM)
Cc1ncsc1-c1ccc([C@H](C)NC(=O)[C@@H]2C[C@@H](O)CN2C(=O)[C@@H](NC(=O)COCCCOCCCN2CCC3(CC2)CCN(c2nccc(Nc4cc5c(cn4)nc(C)n5C(C)C)n2)CC3)C(C)(C)C)cc1 [Example 282, (2S,4R)-4-hydroxy-1-((S)-2-(2-(3-(3-(9-(4-((1-isopropyl-2-methyl-1H-imidazo[4,5-c]pyridin-6-yl)amino)pyrimidin-2-yl)-3,9-diazaspiro[5.5]undecan-3-yl)propoxy)propoxy)acetamido)-3,3-dimethylbutanoyl)-N—((S)-1-(4-(4-methylthiazol-5-yl)phenyl)ethyl)pyrrolidine-2-carboxamide]	> 30	12	23	> 30	
COC1CCN(c2nccc(Nc3cc4c(cn3)nc(-c3ccc(CN5CCN(CCOc6ccc7c(c6)C(=O)N(C6CCC(=O)NC6=O)C7=O)CC5)cc3)n4C(C)C)n2)CC1 (centres unmarked) [Example 286, 2-(2,6-dioxopiperidin-3-yl)-5-(2-(4-(4-(1-isopropyl-6-((2-(4-methoxypiperidin-1-yl)pyrimidin-4-yl)amino)-1H-imidazo[4,5-c]pyridin-2-yl)benzyl)piperazin-1-yl)ethoxy)isoindoline-1,3-dione]	0.48	7.3	0.17		
COC1(CCN2CCN(CCCOCCCOCC(=O)N[C@H](C(=O)N3C[C@H](O)C[C@H]3C(=O)N[C@@H](C)c3ccc(-c4scnc4C)cc3)C(C)(C)C)CC2)CCN(c2nccc(Nc3cc4c(cn3)nc(C)n4C(C)C)n2)CC1 [Example 292, (2S,4R)-4-hydroxy-1-((S)-2-(2-(3-(3-(4-(2-(1-(4-((1-isopropyl-2-methyl-1H-imidazo[4,5-c]pyridin-6-yl)amino)pyrimidin-2-yl)-4-methoxypiperidin-4-yl)ethyl)piperazin-1-yl)propoxy)propoxy)acetamido)-3,3-dimethylbutanoyl)-N—((S)-1-(4-(4-methylthiazol-5-yl)phenyl)ethyl)pyrrolidine-2-carboxamide]	19	39	11		
COC1CCN(c2nccc(Nc3cc4c(cn3)nc(COCCN3CCN(CCOCC(=O)N[C@H](C(=O)N5C[C@H](O)C[C@H]5C(=O)N[C@@H](C)c5ccc(-c6scnc6C)cc5)C(C)(C)C)CC3)n4C(C)C)n2)CC1 [compound 86]	12	> 30	2.4	24	C (>80% EGFR protein remaining after 72 hours of incubation with the test compound at a concentration of 300 nM)
COC1CCN(c2nccc(Nc3cc4c(cn3)nc(COCCOCCN3CCN(CCOc5ccc6c(c5)C(=O)N(C5CCC(=O)NC5=O)C6=O)CC3)n4C(C)C)n2)CC1 (centres unmarked) [compound 88]	11	> 30	9.4	3.1	C (>80% EGFR protein remaining after 72 hours of incubation with the test compound at a concentration of 300 nM)
Cc1ncsc1-c1ccc([C@H](C)NC(=O)[C@H]2C[C@H](O)CN2C(=O)[C@@H](NC(=O)COCCN2CCN(CCCC#Cc3cccc4c3C(=O)N(C(C(=O)Nc3nccs3)c3cc(F)ccc3O)C4)CC2)C(C)(C)C)cc1 (some centres unmarked) [compound 91]	4.7	4.3	0.66	8.3	C (>80% EGFR protein remaining after 72 hours of incubation with the test compound at a concentration of 300 nM)
Cc1ncsc1-c1ccc([C@H](C)NC(=O)[C@H]2C[C@H](O)CN2C(=O)[C@@H](NC(=O)COCCOCCOCCOc2ccc(-c3nccc(Nc4cc5c(cn4)nc(C)n5C(C)C)n3)cc2)C(C)(C)C)cc1 [compound 278]	> 30	30	> 30	> 30	
Cc1ncsc1-c1ccc([C@H](C)NC(=O)[C@H]2C[C@H](O)CN2C(=O)[C@@H](NC(=O)COCCOCCOCCOCCOc2ccc(-c3nccc(Nc4cc5c(cn4)nc(C)n5C(C)C)n3)cc2)C(C)(C)C)cc1 [compound 279]	29	16	> 30	> 30	
Cc1ncsc1-c1ccc(CNC(=O)[C@@H]2C[C@@H](O)CN2C(=O)C(C(C)C)N2Cc3ccccc3C2=O)c(OCCOCCOCCOCCOc2ccc(-c3nccc(Nc4cc5c(cn4)nc(C)n5C(C)C)n3)cc2)c1 (some centres unmarked) [compound 281]	> 30	12	15	> 30	
Cc1ncsc1-c1ccc([C@H](C)NC(=O)[C@H]2C[C@H](O)CN2C(=O)[C@@H](NC(=O)COCCCOCCCN2CCOC3(CCN(c4nccc(Nc5cc6c(cn5)nc(C)n6C(C)C)n4)CC3)C2)C(C)(C)C)cc1 [compound 285]	35	26	17		
COC1CCN(c2nccc(Nc3cc4c(cn3)nc(COCCN3CCN(c5ccc6c(c5)C(=O)N(C5CCC(=O)NC5=O)C6=O)CC3)n4C(C)(C)C)n2)CC1 (centres unmarked) [compound 287]	0.074	6.7	0.016		
COC1CCN(c2nccc(Nc3cc4[nH]c(COCCN5CCN(c6ccc7c(c6)C(=O)N(C6CCC(=O)NC6=O)C7=O)CC5)nc4cn3)n2)CC1 (centres unmarked) [compound 288]	6.9	5.9	2		
O=C1CCC(N2C(=O)c3ccc(N4CCN(CC5CCN(CC#Cc6cccc7c6C(=O)N(C(C(=O)Nc6nccs6)c6cc(F)ccc6O)C7)CC5)CC4)cc3C2=O)C(=O)N1 (centres unmarked) [compound 293]	4.2	1.7	0.64		

— patent US10994015B2, “EGFR proteolysis targeting chimeric molecules and associated methods of use” (Arvinas Operations, Inc., priority 2016, dated 2021)
